Tests used:
[1] = system: CD-1 mice; test: Maximal Electroshock Procedure (protection from tonic seizures); format: in vivo; settings: Mus musculus, po; maximal electroshock (50 mA, 0.4 second, corneal electrodes); male CD-1 mice; p.o. 30 minutes prior to stimulation; PROBIT analysis; read-out: ED50 (dose at which 50% of the mice were protected from tonic seizures)
Procedure: (§1) Adult, male, CD-1 mice (22-25 grams) were obtained from Charles River Laboratories (Portage, Mich.) and housed at Abbott Laboratories (Abbott Park) under standard lighting conditions of 12 hours on/12 hours off, with lights on at 6 a.m. Food and water were provided ad libitum and mice weighed 25-35 grams at the time of testing.
(§2) Compounds were prepared for oral administration by suspending them in a vehicle of 100 μL Tween® 80 per mL hydroxypropyl methylcellulose (2 mg/mL, Abbott Laboratories). Compound solutions were administered at a volume of 10 mL/kg, p.o.
Maximal Electroshock Procedure:
The method used was similar to that of E.A. Swinyard, General principles: Experimental selection, quantification and evaluation of anti-convulsants, Anti-epileptic Drugs, Third Edition, R. Levey, et al., Editors. 1989, Raven Press Ltd: New York. Mice were pretreated orally with compounds of the present invention 30 minutes prior to electrical stimulation. Electrical stimulation consisted of pulsed electrical current (50 mA, 0.4 second duration, pulse width 0.5 msec, 60 pulses/sec) applied via corneal electrodes to induce seizure. The stimulation was delivered with an ECT Unit (Ugo Basile #7801). […] The percent protection from tonic seizures was calculated by dividing the number of protected mice by the total number in the group. […]

[2] = system: CD-1 mice; test: Subcutaneous pentylenetetrazole (PTZ) Seizure Procedure; format: in vivo; settings: Mus musculus; subcutaneous PTZ 85 mg/kg; male CD-1 mice; p.o. 30 minutes prior to PTZ; observed 15 minutes; linear regression; read-out: ED50 (dose at which 50% of the mice were protected from tonic seizures)
Procedure: as §1, §2
Subcutaneous pentylenetetrazole (PTZ) Seizure Procedure:
The method used was similar to that of E. A. Swinyard, General principles: Experimental selection, quantification and evaluation of anti-convulsants, Anti-epileptic Drugs, Third Edition, R. Levey, et al., Editors. 1989, Raven Press Ltd: New York. During the experiment the mice were housed individually in clear polycarbonate cages for observation. […] Seizures were induced by the subcutaneous injection of pentylenetetrazole (PTZ, 85 mg/kg) just below the nape of the neck. […] A total of 20 mice were used in each group. The ED50for the compounds were calculated using linear regression and represent the dose at which 50% of the mice were protected from tonic seizures.

| melting point [°C] | Structure (SMILES) | ED50 [1] [µmol/kg] | ED50 [2] [µmol/kg] |
| --- | --- | --- | --- |
| 121.5 to 122.5 | CC1(C)[C@@H]2CC3[C@H](C(N)=O)[C@@]3(C)C[C@@H]21 (stereo partly drawn) [Example 3, (1S,3S,4S,7R)-3,8,8-trimethyltricyclo[5.1.0.0^3,5]octane-4-carboxamide] | – | – |
| 169.2 to 169.7 | CC1(C)[C@@H]2CC3[C@H](C(=O)NCC(N)=O)[C@@]3(C)C[C@@H]21 (stereo partly drawn) [Example 4, (1S,3S,4S,7R)-N-(2-amino-2-oxoethyl)-3,8,8-trimethyltricyclo[5.1.0.0^3,5]octane-4-carboxamide] | – | – |
| 86 | CC1(C)[C@@H]2CC3[C@H](C(=O)O)[C@@]3(C)C[C@@H]21 (stereo partly drawn) (hydrate or solvate) [Example 1, (1S,3S,4S,7R)-3,8,8-trimethyltricyclo[5.1.0.0^3,5]octane-4-carboxylic acid] | – | – |
| – | CCCC(CCC)C(=O)O [Valproate] | 1200 | 1800 |

From patent US20040077617A1, “Fused cycloalkyl amides and acids and their therapeutic applications” (priority 2002, published 2004)
